Structures are written as SMILES. Calls of active or inactive are those of the source. The calls are words filed in the database; no cut-off is given here.

Here are results for ten compounds from ChEMBL document CHEMBL3603831, “Discovery of Potent 17β-Hydroxywithanolides for Castration-Resistant Prostate Cancer by High-Throughput Screening of a Natural Products Library for Androgen-Induced Gene Expression Inhibitors” (J Med Chem, 2015).

In series [1] the target is T1, Androgen receptor (Homo sapiens, UniProt P10275).
T1 sequence (P10275 whole entry): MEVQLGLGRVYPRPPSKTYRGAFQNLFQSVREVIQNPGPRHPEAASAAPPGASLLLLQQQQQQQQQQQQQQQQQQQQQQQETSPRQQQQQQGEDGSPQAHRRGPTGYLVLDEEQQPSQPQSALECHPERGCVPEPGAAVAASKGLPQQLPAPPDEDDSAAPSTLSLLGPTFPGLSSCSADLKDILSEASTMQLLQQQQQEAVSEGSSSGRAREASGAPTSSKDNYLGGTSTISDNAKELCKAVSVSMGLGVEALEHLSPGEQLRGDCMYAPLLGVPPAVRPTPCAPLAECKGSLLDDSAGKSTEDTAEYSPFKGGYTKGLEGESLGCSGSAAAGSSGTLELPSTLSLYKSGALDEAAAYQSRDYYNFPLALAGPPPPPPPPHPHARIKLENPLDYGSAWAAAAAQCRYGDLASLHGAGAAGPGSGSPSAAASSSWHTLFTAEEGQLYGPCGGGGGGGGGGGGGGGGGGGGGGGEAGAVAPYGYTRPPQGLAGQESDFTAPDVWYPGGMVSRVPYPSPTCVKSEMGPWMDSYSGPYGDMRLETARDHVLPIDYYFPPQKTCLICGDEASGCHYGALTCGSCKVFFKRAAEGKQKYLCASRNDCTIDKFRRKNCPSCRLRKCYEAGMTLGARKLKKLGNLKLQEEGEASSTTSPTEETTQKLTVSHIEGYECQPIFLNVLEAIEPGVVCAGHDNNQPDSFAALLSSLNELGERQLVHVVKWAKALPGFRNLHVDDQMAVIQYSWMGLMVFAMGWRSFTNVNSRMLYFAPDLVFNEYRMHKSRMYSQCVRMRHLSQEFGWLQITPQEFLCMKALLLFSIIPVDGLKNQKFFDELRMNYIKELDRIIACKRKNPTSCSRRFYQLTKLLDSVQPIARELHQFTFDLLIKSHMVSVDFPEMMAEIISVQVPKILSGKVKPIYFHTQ
Put plainly: Inhibition of androgen receptor in human LNCAP cells assessed as inhibition of DHT-induced SPDEF gene expression by Array Plate assay. The class given is cell-based.

A further series relates to MCF7. Put plainly: Cytotoxicity against human MCF7 cells assessed as inhibition of cell proliferation/survival after 72 hrs by resazurin dye reduction assay. The class given is functional, cell-based. As to conditions: MCF7, 72 h.
The subject of another series is SF-268. Put plainly: Cytotoxicity against human SF268 cells assessed as inhibition of cell proliferation/survival after 72 hrs by resazurin dye reduction assay. As to conditions: SF-268, 72 h. The class given is functional, cell-based.
The test system of series [2] is LNCaP. Put plainly: Cytotoxicity against human LNCAP cells assessed as inhibition of cell proliferation/survival after 72 hrs by resazurin dye reduction assay. It counts as functional, cell-based.
Series [3] concerns PC-3. Put plainly: Cytotoxicity against human PC3 cells assessed as inhibition of cell proliferation/survival after 72 hrs by resazurin dye reduction assay. The class given is functional, cell-based. As to conditions: PC-3, 72 h.
A further series relates to NCI-H460. Put plainly: Cytotoxicity against human NCI-H460 cells assessed as inhibition of cell proliferation/survival after 72 hrs by resazurin dye reduction assay. It counts as functional, cell-based. As to conditions: NCI-H460, 72 h.
The target of series [4] is T1, Androgen receptor. Put plainly: Inhibition of androgen receptor in human LNCAP cells assessed as inhibition of DHT-induced KLK3 gene expression by Array Plate assay. It counts as cell-based.
Series [5] concerns the target T1, Androgen receptor. Put plainly: Inhibition of androgen receptor in human LNCAP cells assessed as inhibition of DHT-induced KLK2 gene expression by Array Plate assay. The class given is cell-based.
For another series, the system named is HFF. Put plainly: Cytotoxicity against HFF assessed as inhibition of cell proliferation/survival after 72 hrs by resazurin dye reduction assay. The class given is cell-based. As to conditions: Homo sapiens.
Series [6] concerns PC-3. Put plainly: Antitumor activity against human PC3 cells xenografted in ip dosed SCID mouse assessed as tumor growth inhibition for five times per week up to two weeks measured twice per week. The class given is functional, organism-based.
For series [7], the system named is PC-3. Put plainly: Antitumor activity against human PC3 cells xenografted in SCID mouse assessed as tumor growth inhibition at 26 to 40 mg/kg, ip coadministered with taxotere for five times per week up to two weeks measured twice per week. The class given is functional, organism-based.
Series [8] can be described thus: Tmax in SCID mouse at 50 mg/kg, ip. The class given is ADME, organism-based. As to conditions: in vivo.
Series [9] is described as follows: Toxicity in sc dosed SCID mouse administered in trappsol once per day for 5 days followed by 2 days of rest and again dose repetition. As to conditions: in vivo. The class given is organism-based.
Series [10] relates to Mus musculus. Put plainly: Toxicity in SCID mouse xenografted with human PC3 cells assessed as mortality at 26 to 40 mg/kg, ip for five times per week up to two weeks. It counts as organism-based, PC-3. As to conditions: in vivo.
Series [11] has as its system Plasma. Put plainly: Drug uptake in SCID mouse plasma at 50 mg/kg administered through gastric gavage. It counts as ADME, organism-based. As to conditions: in vivo, po.
The next series has as its system Serum. Put plainly: Drug uptake in SCID mouse serum at 25 mg/kg, sc administered in trappsol measured after 1 hr. The class given is ADME, organism-based. As to conditions: in vivo.
The test system of series [12] is Plasma. Put plainly: Drug uptake in SCID mouse plasma at 50 mg/kg, ip. It counts as ADME, organism-based. As to conditions: in vivo.
Series [13] deals with Mus musculus. Put plainly: Toxicity in SCID mouse xenografted with human LNCAP cells assessed as mortality at 15 to 25 mg/kg, sc administered in trappsol for five times per week up to two weeks. As to conditions: in vivo. The class given is organism-based.
In series [14] the test system is LNCaP. Put plainly: Antitumor activity against human LNCAP cells xenografted in sc dosed SCID mouse assessed as tumor growth inhibition administered in trappsol for five times per week up to two weeks measured twice per week. It counts as functional, organism-based.
Series [15] concerns LNCaP. Put plainly: Antitumor activity against human LNCAP cells xenografted in SCID mouse assessed as tumor growth inhibition at 15 to 25 mg/kg, sc coadministered with taxotere in trappsol for five times per week up to two weeks measured twice per week. The class given is functional, organism-based.
In series [16] the target is T2, Androgen receptor (Homo sapiens) (UniProt P10275).
T2 sequence (whole entry): T1 sequence (P10275 whole entry)
Put plainly: Competitive inhibition of androgen binding to androgen receptor (unknown origin) by invitrogen polar screen assay.

Series [17] relates to PC-3. Put plainly: Antitumor activity against human PC3 cells xenografted in SCID mouse assessed as tumor growth inhibition at 50 mg/kg, ip qd administered for 5 days followed by 2 days rest and again dose repetition up to 30 days measured after day 30 post dose relative to vehicle-treated control. It counts as functional. As to conditions: PC-3, ip, read-out: TGI.
Series [18] is described as follows: Toxicity in SCID mouse assessed as change in body weight measured every 3 to 5 days up to 18 days. It counts as organism-based. As to conditions: in vivo.
Series [19] concerns PC-3. Put plainly: Antitumor activity against human PC3 cells xenografted in SCID mouse assessed as tumor growth inhibition at 12 mg/kg, iv administered for five times per week up to two weeks measured twice per week. The class given is functional, organism-based.

With `CC(=O)OC[C@]12CC[C@H]3[C@@H](CC=C4C=CCC(=O)[C@@]43C)[C@]1(O)CC[C@@]2(O)[C@@](C)(O)[C@H]1CC(C)=C(C)C(=O)O1`, the IC50 is 3280 nM at Androgen receptor [1]; over 5000 nM with MCF7; over 5000 nM in the series on SF-268; 1100 nM in the series with LNCaP [2]; 3100 nM in the series on PC-3 [3]; 3900 nM with NCI-H460. Moreover, the IC50 was 3520 nM at Androgen receptor [4], 2400 nM at Androgen receptor [5] and over 3100 nM in the series with HFF.

On to `CC(=O)OC[C@]12CC[C@H]3[C@@H](C[C@H]4O[C@]45CC=CC(=O)[C@]35C)[C@]1(O)CC[C@@]2(O)[C@@](C)(O)[C@H]1CC(C)=C(C)C(=O)O1`, for which the TGI result in the series with PC-3 [6] and with LNCaP [14] was “Dose-dependent effect” throughout. In addition, the TGI result with PC-3 [7] and in the series on LNCaP [15] was “Active” in each case. Besides, in [8], the Tmax is 15 min. Moreover, the MTD in [9] was 25 mg/kg. Further, the IC50 with MCF7 is 210 nM; with SF-268 it was 2600 nM; with LNCaP [2], 20 nM; in the series on PC-3 [3], 90 nM; in the series with NCI-H460, 800 nM; with HFF, over 3100 nM. Also, the Activity result in the series with Mus musculus [10] and with Mus musculus [13] was “Non-toxic” each time. In addition, the Drug uptake entry with Plasma [11] is given as “Not Active”; with Serum, “Active”; in the series with Plasma [12] it was “Active”.

`CC(=O)OC[C@]12CC[C@H]3[C@@H](CC=C4C=CCC(=O)[C@@]43C)[C@]1(O)[C@@H](OC(C)=O)C[C@@]2(O)[C@@](C)(O)[C@H]1CC(C)=C(C)C(=O)O1`: the IC50 at Androgen receptor [1] was 1200 nM; with MCF7, over 5000 nM; in the series with SF-268, over 5000 nM; in the series with LNCaP [2], 2000 nM; with PC-3 [3], over 5000 nM; in the series on NCI-H460, over 5000 nM. Besides, the results for the IC50 at Androgen receptor [4], at Androgen receptor [5] and with HFF were 1420 nM, 620 nM and over 5000 nM, respectively.

With `CC1=C(CO)C(=O)O[C@@H]([C@@H](C)[C@H]2CC[C@H]3[C@@H]4C[C@H]5O[C@]56[C@@H](O)C=CC(=O)[C@]6(C)[C@H]4CC[C@]23C)C1` [WITHAFERIN A], the IC50 is 570 nM in the series on MCF7; under 400 nM in the series with SF-268; 870 nM in the series on LNCaP [2]; 410 nM in the series on PC-3 [3]; under 400 nM in the series on NCI-H460; over 6800 nM in the series on HFF.

Regarding `CC(=O)OC[C@]12CC[C@H]3[C@@H](CC=C4CC=CC(=O)[C@@]43C)[C@]1(O)[C@@H](OC(C)=O)C[C@@]2(O)[C@@](C)(O)[C@H]1CC(C)=C(C)C(=O)O1`, the IC50 at Androgen receptor [1] was 2720 nM; in the series on MCF7, over 5000 nM; in the series with SF-268, over 5000 nM; in the series with LNCaP [2] it was 440 nM; with PC-3 [3] it was 2000 nM; with NCI-H460, 2000 nM. Moreover, the IC50 at Androgen receptor [4] is 3580 nM; on Androgen receptor [5] it was 1790 nM; in the series on HFF, over 2800 nM.

Consider `CC(=O)OC[C@]12CC[C@H]3[C@@H](C[C@@H]4O[C@@]45CC=CC(=O)[C@]35C)[C@]1(O)CC[C@@]2(O)[C@@](C)(O)[C@H]1CC(C)=C(C)C(=O)O1`, for which the IC50 in the series on MCF7 is 1200 nM; in the series on SF-268, over 5000 nM; in the series with LNCaP [2] it was 320 nM; with PC-3 [3], 1200 nM; in the series with NCI-H460, 2100 nM; with HFF it was over 12000 nM.

With `CC(=O)OC[C@]12CC[C@H]3[C@@H](CC=C4CC=CC(=O)[C@@]43C)[C@]1(O)CC[C@@]2(O)[C@@](C)(O)[C@H]1CC(C)=C(C)C(=O)O1`, the concentration for half-maximal inhibition (IC50) at Androgen receptor [1] is 770 nM; with MCF7 it was 1900 nM; in the series with SF-268, 3400 nM; in the series on LNCaP [2], 70 nM; in the series with PC-3 [3], 130 nM; in the series with NCI-H460, 1200 nM. The IC50 is 750 nM at Androgen receptor [4], 580 nM on Androgen receptor [5] and over 3100 nM with HFF. The inhibition entry in series [16] is “inactive”. In the series with PC-3 [17], the inhibition in vivo at 50 mg/kg worked out at 66%. Further, in [18], the MTD at 18 days turned out to be 50 mg/kg.

On to `COc1cccc2c1C(=O)c1c(O)c3c(c(O)c1C2=O)C[C@@](O)(C(=O)CO)C[C@@H]3O[C@H]1C[C@H](N)[C@H](O)[C@H](C)O1` [DOXORUBICIN], for which the figures for the IC50 in the series on MCF7, with SF-268 and with PC-3 [3] were 320 nM, 450 nM and 250 nM, respectively.

As to `CC(=O)OC[C@]12CC[C@H]3[C@@H](CC=C4CC=CC(=O)[C@@]43C)[C@]1(O)[C@@H](OC(C)=O)C[C@@]2(O)[C@@](C)(O)[C@H]1CC(CO)=C(C)C(=O)O1`, the IC50 with MCF7 is over 5000 nM; with SF-268, over 5000 nM; in the series on LNCaP [2], 3300 nM; with PC-3 [3], over 5000 nM; with NCI-H460, over 5000 nM.

As to `CC(=O)O[C@@]12CO[C@@H]1C[C@H](O)[C@@]1(C)C(=O)[C@H](O)C3=C(C)[C@@H](OC(=O)[C@H](O)[C@@H](NC(=O)OC(C)(C)C)c4ccccc4)C[C@@](O)([C@@H](OC(=O)c4ccccc4)[C@H]21)C3(C)C`, in the series on PC-3 [19], the TGI entry is “Active”.
